# System: Drosophila melanogaster
# Experiment: Drosophila melanogaster (fruit fly) injection model
# Format: in vivo
# Details: 250 μg/ml; for flies recovering after 24 hours: 24 hours post-injection; for signs of paralysis in injected flies: cohort of 20 age-matched flies
# Experimental: FIG. 17 is a graph showing the results of an experiment to show Drosophila killing by Ece1-III. The percentage of Drosophila death, 24 hours post-infection of 250 μg/ml His-tagged full length Ece1p, Ece1-II (peptide 2) (FIG. 2), and Ece1-III (peptide 3), into a cohort of 20 age-matched flies.
# The applicants also determined the effect of administering full length His-tagged Ece1p and Ece1-III in a Drosophila melanogaster (fruit fly) model.
Compound,flies recovering after 24 hours,signs of paralysis in injected flies
CC[C@H](C)[C@H](NC(=O)CNC(=O)[C@H](CCSC)NC(=O)[C@@H](NC(=O)[C@@H](NC(=O)CNC(=O)[C@@H](NC(=O)[C@@H](NC(=O)[C@@H](N)CO)[C@@H](C)CC)[C@@H](C)CC)[C@@H](C)CC)[C@@H](C)CC)C(=O)N[C@@H](CC(C)C)C(=O)NCC(=O)N[C@@H](CC(N)=O)C(=O)N[C@H](C(=O)N1CCC[C@H]1C(=O)N[C@@H](CCC(N)=O)C(=O)N[C@H](C(=O)N[C@H](C(=O)N[C@@H](CCC(N)=O)C(=O)N[C@H](C(=O)N[C@H](C(=O)N[C@@H](CCSC)C(=O)N[C@@H](CO)C(=O)N[C@H](C(=O)N[C@H](C(=O)N[C@@H](CCCCN)C(=O)N[C@@H](C)C(=O)N[C@@H](Cc1ccccc1)C(=O)N[C@@H](CCCCN)C(=O)NCC(=O)N[C@@H](CC(N)=O)C(=O)N[C@@H](CCCCN)C(=O)N[C@@H](CCCNC(=N)N)C(=O)O)C(C)C)[C@@H](C)CC)[C@@H](C)CC)[C@@H](C)CC)[C@@H](C)CC)C(C)C)[C@@H](C)CC [Ece1-III],10%,displayed signs of paralysis
full length His-tagged Ece1p: His-tagged full length Ece1 protein of C. albicans,17.5%,displayed signs of paralysis
CC[C@H](C)[C@H](NC(=O)[C@H](C)NC(=O)[C@@H](NC(=O)[C@H](CC(N)=O)NC(=O)[C@H](Cc1ccccc1)NC(=O)[C@H](CCC(=O)O)NC(=O)[C@H](CCC(N)=O)NC(=O)[C@@H]1CCCN1C(=O)[C@H](C)NC(=O)[C@@H]1CCCN1C(=O)[C@@H](NC(=O)[C@@H](NC(=O)[C@@H]1CCCN1C(=O)[C@H](C)NC(=O)[C@H](CCC(N)=O)NC(=O)[C@H](CC(=O)O)NC(=O)[C@H](C)NC(=O)[C@@H]1CCCN1C(=O)[C@H](C)NC(=O)[C@H](C)NC(=O)[C@@H]1CCCN1C(=O)[C@H](C)NC(=O)[C@H](C)NC(=O)[C@@H]1CCCN1C(=O)[C@H](C)NC(=O)[C@@H](NC(=O)[C@@H](N)CC(=O)O)C(C)C)[C@@H](C)O)C(C)C)[C@@H](C)O)C(=O)N[C@H](C(=O)N[C@@H](CCCCN)C(=O)N[C@@H](CCCNC(=N)N)C(=O)O)[C@@H](C)O [Ece1-II],–,no signs of paralysis
